PubChem BioAssay AID1963837 (Molecular Pharmacology Branch, DTP, NCI, 2024)

System: 843126-344-R-J1-PDC complex spheroid viability
Test: Anticancer human tumor 843126-344-R-J1-PDC patient-derived melanoma cell line growth inhibition [POLQ]
Conditions: for IC50: curve of first compound; for viability, T/C: stronger effect = lower value; active means viability on the fitted dose curve at most 10% of control; inactive means the rest
Outline: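 Three-cell-type spheroids modelling solid tumor plus stroma served as the readout system; POL inhibitors were tested individually and in combination, concentration ranges set by clinical Cmax where known.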

[1] = second compound 0.0316 µM, first compound 0.0316 µM
[2] = second compound 0.0316 µM, first compound 0.1 µM
[3] = second compound 0.0316 µM, first compound 0.316 µM
[4] = second compound 0.0316 µM, first compound 1 µM
[5] = second compound 0.0316 µM, first compound 3.16 µM
[6] = second compound 0.0316 µM, first compound 10 µM
[7] = second compound 0.1 µM, first compound 0.0316 µM
[8] = second compound 0.1 µM, first compound 0.1 µM
[9] = second compound 0.1 µM, first compound 0.316 µM
[10] = second compound 0.1 µM, first compound 1 µM
[11] = second compound 0.1 µM, first compound 3.16 µM
[12] = second compound 0.1 µM, first compound 10 µM
[13] = second compound 0.316 µM, first compound 0.0316 µM
[14] = second compound 0.316 µM, first compound 0.1 µM
[15] = second compound 0.316 µM, first compound 0.316 µM
[16] = second compound 0.316 µM, first compound 1 µM
[17] = second compound 0.316 µM, first compound 3.16 µM
[18] = second compound 0.316 µM, first compound 10 µM
[19] = second compound 1 µM, first compound 0.0316 µM
[20] = second compound 1 µM, first compound 0.1 µM
[21] = second compound 1 µM, first compound 0.316 µM
[22] = second compound 1 µM, first compound 1 µM
[23] = second compound 1 µM, first compound 3.16 µM
[24] = second compound 1 µM, first compound 10 µM
[25] = second compound 3.16 µM, first compound 0.0316 µM
[26] = second compound 3.16 µM, first compound 0.1 µM
[27] = second compound 3.16 µM, first compound 0.316 µM
[28] = second compound 3.16 µM, first compound 1 µM
[29] = second compound 3.16 µM, first compound 3.16 µM
[30] = second compound 3.16 µM, first compound 10 µM
[31] = second compound 10 µM, first compound 0.0316 µM
[32] = second compound 10 µM, first compound 0.1 µM
[33] = second compound 10 µM, first compound 0.316 µM
[34] = second compound 10 µM, first compound 1 µM
[35] = second compound 10 µM, first compound 3.16 µM
[36] = second compound 10 µM, first compound 10 µM
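Wherever viability, T/C is given: spheroids exposed to drugs for seven days before readout.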

CC1COCCN1c1cc(-c2ccnn2C)c2ccnc(-c3ccn[nH]3)c2n1 (stereo not drawn) + COC1C(OC(N)=O)C(O)C(Oc2ccc3c(O)c(NC(=O)c4ccc(O)c(CC=C(C)C)c4)c(=O)oc3c2C)OC1(C)C
0.875 µM: IC50 (second compound 0.1 µM)
1.04 µM: IC50 (second compound 0.0316 µM)
inactive: viability, T/C [1] 98.7% | viability, T/C [2] 69.8% | viability, T/C [3] 66.3% | viability, T/C [4] 54.2% | viability, T/C [5] 35.5% | viability, T/C [6] 34.2% | viability, T/C [7] 81.1% | viability, T/C [8] 76.5% | viability, T/C [9] 67.1% | viability, T/C [10] 47.2% | viability, T/C [11] 33.4% | viability, T/C [12] 26.4% | viability, T/C [13] 92.4% | viability, T/C [14] 73.7% | viability, T/C [15] 60.4% | viability, T/C [16] 46.2% | viability, T/C [17] 38.1% | viability, T/C [18] 23.7% | viability, T/C [19] 65.7% | viability, T/C [20] 77.5% | viability, T/C [21] 71.3% | viability, T/C [22] 53.5% | viability, T/C [23] 36.3% | viability, T/C [24] 32% | viability, T/C [25] 73.3% | viability, T/C [26] 83% | viability, T/C [27] 58.5% | viability, T/C [28] 45.9% | viability, T/C [29] 42.1% | viability, T/C [30] 25% | viability, T/C [31] 73.3% | viability, T/C [32] 77.5% | viability, T/C [33] 61.5% | viability, T/C [34] 46.1% | viability, T/C [35] 42.9% | viability, T/C [36] 24.3%
0.784 µM: IC50 (second compound 0.316 µM)
0.918 µM: IC50 (second compound 3.16 µM)
1.1 µM: IC50 (second compound 10 µM)
1.27 µM: IC50 (second compound 1 µM)

CNCc1ccc(-c2[nH]c3cc(F)cc4c3c2CCNC4=O)cc1 + COC1C(OC(N)=O)C(O)C(Oc2ccc3c(O)c(NC(=O)c4ccc(O)c(CC=C(C)C)c4)c(=O)oc3c2C)OC1(C)C
> 10 µM: IC50 (second compound 0.0316 µM) | IC50 (second compound 0.1 µM) | IC50 (second compound 0.316 µM) | IC50 (second compound 1 µM) | IC50 (second compound 3.16 µM) | IC50 (second compound 10 µM)
inactive: viability, T/C [1] 84.8% | viability, T/C [2] 94% | viability, T/C [3] 98.3% | viability, T/C [4] 92.3% | viability, T/C [5] 86.8% | viability, T/C [6] 87% | viability, T/C [7] 88% | viability, T/C [8] 102% | viability, T/C [9] 115% | viability, T/C [10] 94.3% | viability, T/C [11] 99.7% | viability, T/C [12] 87.1% | viability, T/C [13] 98.7% | viability, T/C [14] 88.6% | viability, T/C [15] 90.7% | viability, T/C [16] 96.1% | viability, T/C [17] 108% | viability, T/C [18] 70.5% | viability, T/C [19] 109% | viability, T/C [20] 98.6% | viability, T/C [21] 97.8% | viability, T/C [22] 95.8% | viability, T/C [23] 90.5% | viability, T/C [24] 74.6% | viability, T/C [25] 99.9% | viability, T/C [26] 96.9% | viability, T/C [27] 92% | viability, T/C [28] 101% | viability, T/C [29] 82.2% | viability, T/C [30] 85.4% | viability, T/C [31] 78.6% | viability, T/C [32] 97% | viability, T/C [33] 81% | viability, T/C [34] 100% | viability, T/C [35] 85.9% | viability, T/C [36] 100%

COc1cc(C2c3cc4c(cc3C(OC3OC5COC(C)OC5C(O)C3O)C3COC(=O)C23)OCO4)cc(OC)c1O (stereo not drawn) + Nc1ccc(C#CCN(C(=O)Cc2ncc(C(F)(F)F)cc2C(F)(F)F)c2ccc(F)cc2)nn1
> 10 µM: IC50 (second compound 0.0316 µM) | IC50 (second compound 0.1 µM) | IC50 (second compound 0.316 µM) | IC50 (second compound 1 µM)
inactive: viability, T/C [1] 82.4% | viability, T/C [2] 78.3% | viability, T/C [3] 94% | viability, T/C [4] 89.7% | viability, T/C [5] 58.3% | viability, T/C [6] 49.5% | viability, T/C [7] 97.1% | viability, T/C [8] 77.8% | viability, T/C [9] 92% | viability, T/C [10] 94.3% | viability, T/C [11] 73.4% | viability, T/C [12] 51.4% | viability, T/C [13] 91.8% | viability, T/C [14] 104% | viability, T/C [15] 99.1% | viability, T/C [16] 78.9% | viability, T/C [17] 70.1% | viability, T/C [18] 49.5% | viability, T/C [19] 96.1% | viability, T/C [20] 83.6% | viability, T/C [21] 80.5% | viability, T/C [22] 71.6% | viability, T/C [23] 64.3% | viability, T/C [24] 53.5% | viability, T/C [25] 88.3% | viability, T/C [26] 77% | viability, T/C [27] 89.9% | viability, T/C [28] 75.2% | viability, T/C [29] 68.6% | viability, T/C [30] 44.3% | viability, T/C [31] 81.8% | viability, T/C [32] 96.5% | viability, T/C [33] 78.5% | viability, T/C [34] 75.4% | viability, T/C [35] 61.7% | viability, T/C [36] 42.3%
6.29 µM: IC50 (second compound 10 µM)
7.6 µM: IC50 (second compound 3.16 µM)

CC(=O)O[C@H]1C(=O)[C@@]2(C)[C@H]([C@H](OC(=O)c3ccccc3)[C@]3(O)C[C@H](OC(=O)[C@H](O)[C@@H](NC(=O)c4ccccc4)c4ccccc4)C(C)=C1C3(C)C)[C@]1(OC(C)=O)CO[C@@H]1C[C@@H]2O + COC1C(OC(N)=O)C(O)C(Oc2ccc3c(O)c(NC(=O)c4ccc(O)c(CC=C(C)C)c4)c(=O)oc3c2C)OC1(C)C
inactive: viability, T/C (second compound 0.0316 µM, first compound 0.00949 µM) 55.4% | viability, T/C (second compound 0.0316 µM, first compound 0.03 µM) 70% | viability, T/C (second compound 0.0316 µM, first compound 0.0949 µM) 56% | viability, T/C (second compound 0.0316 µM, first compound 0.3 µM) 69.8% | viability, T/C (second compound 0.0316 µM, first compound 0.949 µM) 61.2% | viability, T/C (second compound 0.0316 µM, first compound 3 µM) 68.9% | viability, T/C (second compound 0.1 µM, first compound 0.00949 µM) 63.9% | viability, T/C (second compound 0.1 µM, first compound 0.03 µM) 60.9% | viability, T/C (second compound 0.1 µM, first compound 0.0949 µM) 49.1% | viability, T/C (second compound 0.1 µM, first compound 0.3 µM) 55.3% | viability, T/C (second compound 0.1 µM, first compound 0.949 µM) 55.5% | viability, T/C (second compound 0.1 µM, first compound 3 µM) 57.5% | viability, T/C (second compound 0.316 µM, first compound 0.00949 µM) 55.6% | viability, T/C (second compound 0.316 µM, first compound 0.03 µM) 64.6% | viability, T/C (second compound 0.316 µM, first compound 0.0949 µM) 65.5% | viability, T/C (second compound 0.316 µM, first compound 0.3 µM) 57.1% | viability, T/C (second compound 0.316 µM, first compound 0.949 µM) 55.7% | viability, T/C (second compound 0.316 µM, first compound 3 µM) 61.1% | viability, T/C (second compound 1 µM, first compound 0.00949 µM) 60.2% | viability, T/C (second compound 1 µM, first compound 0.03 µM) 59.8% | viability, T/C (second compound 1 µM, first compound 0.0949 µM) 61.6% | viability, T/C (second compound 1 µM, first compound 0.3 µM) 60.4% | viability, T/C (second compound 1 µM, first compound 0.949 µM) 52.5% | viability, T/C (second compound 1 µM, first compound 3 µM) 52.1% | viability, T/C (second compound 3.16 µM, first compound 0.00949 µM) 63.6% | viability, T/C (second compound 3.16 µM, first compound 0.03 µM) 62.2% | viability, T/C (second compound 3.16 µM, first compound 0.0949 µM) 53.8% | viability, T/C (second compound 3.16 µM, first compound 0.3 µM) 57.2% | viability, T/C (second compound 3.16 µM, first compound 0.949 µM) 60.7% | viability, T/C (second compound 3.16 µM, first compound 3 µM) 50.9% | viability, T/C (second compound 10 µM, first compound 0.00949 µM) 65.4% | viability, T/C (second compound 10 µM, first compound 0.03 µM) 55.8% | viability, T/C (second compound 10 µM, first compound 0.0949 µM) 52.9% | viability, T/C (second compound 10 µM, first compound 0.3 µM) 54.6% | viability, T/C (second compound 10 µM, first compound 0.949 µM) 66.1% | viability, T/C (second compound 10 µM, first compound 3 µM) 57.1%
> 3 µM: IC50 (second compound 0.0316 µM) | IC50 (second compound 0.1 µM) | IC50 (second compound 0.316 µM) | IC50 (second compound 1 µM) | IC50 (second compound 3.16 µM) | IC50 (second compound 10 µM)
